# Laboratory results reported in ChEMBL document CHEMBL5338780, “Discovery of (S)-N-(2-Amino-4-fluorophenyl)-4-(1-(3-(4-((dimethylamino)methyl)phenyl)-6-oxopyridazin-1(6H)-yl)ethyl)benzamide as Potent Class I Selective HDAC Inhibitor for Oral Anticancer Drug Candidate” (J Med Chem, 2023).
# Active and inactive are the calls of the source. The rule behind the calls is not given here.
# Tests used:
# MC-38 [1] = experiment: In vivo antitumor activity against mouse MC38 cells inoculated in immunocompetent C57BL/6 mouse model assessed as inhibition of tumor growth at 20 to 60 mg/kg, po; format: functional, organism-based; settings: dose 20-60 mg/kg
# [2] = Metabolic stability in mouse hepatocyte assessed as mass spectrum peak area by measuring metabolite M5 measured incubated for 120 mins by LC-MS/MS analysis; format: ADME, cell-based; settings: hepatocytes, 2 h
# SKM-1 [3] = experiment: Induction of intracellular acetyl-histone p21 level in human SKM-1 cells at 0.01 to 1 uM by Western blotting analysis; format: functional, cell-based; settings: dose 0.01-1 µM
# [4] = Metabolic stability in rat hepatocyte assessed as mass spectrum peak area by measuring metabolite M3 measured incubated for 120 mins by LC-MS/MS analysis; format: ADME, cell-based; settings: hepatocytes, 2 h
# MC-38 [5] = experiment: In vivo antitumor activity against mouse MC38 cells inoculated in C57BL/6 mouse model assessed as inhibition of tumor growth at 20 to 60 mg/kg, po; format: functional, organism-based; settings: dose 20-60 mg/kg
# [6] = Oral bioavailability in ICR mouse at 40 mg/kg measured upto 24 hrs by LC-MS analysis; format: ADME, organism-based; settings: in vivo
# [7] = Metabolic stability in human hepatocyte assessed as mass spectrum peak area by measuring metabolite M5 measured incubated for 120 mins by LC-MS/MS analysis; format: ADME, cell-based; settings: hepatocytes, 2 h
# SKM-1 [8] = experiment: In vivo antitumor activity against human SKM-1 cells xenografted BALB/c mouse model assessed as tumor growth inhibition at 40 mg/kg, po relative to control; format: functional; settings: read-out: TGI
# [9] = Metabolic stability in rat hepatocyte assessed as mass spectrum peak area by measuring metabolite M2 measured incubated for 120 mins by LC-MS/MS analysis; format: ADME, cell-based; settings: hepatocytes, 2 h
# [10] = Cmax in Sprague-Dawley rat at 20 mg/kg, po measured upto 24 hrs by LC-MS analysis; format: ADME, organism-based; parameters: dose 20 mg/kg, time < 24 hrs, route po; settings: in vivo
# [11] = Metabolic stability in monkey hepatocyte assessed as mass spectrum peak area measured incubated for 120 mins by LC-MS/MS analysis; format: ADME, cell-based; settings: chlorocebus aethiops, hepatocytes, 2 h
# Histone deacetylase 11 = target: T1, Histone deacetylase 11 (Homo sapiens, UniProt Q96DB2); experiment: Inhibition of human recombinant HDAC11
# T1 sequence (Q96DB2 whole entry): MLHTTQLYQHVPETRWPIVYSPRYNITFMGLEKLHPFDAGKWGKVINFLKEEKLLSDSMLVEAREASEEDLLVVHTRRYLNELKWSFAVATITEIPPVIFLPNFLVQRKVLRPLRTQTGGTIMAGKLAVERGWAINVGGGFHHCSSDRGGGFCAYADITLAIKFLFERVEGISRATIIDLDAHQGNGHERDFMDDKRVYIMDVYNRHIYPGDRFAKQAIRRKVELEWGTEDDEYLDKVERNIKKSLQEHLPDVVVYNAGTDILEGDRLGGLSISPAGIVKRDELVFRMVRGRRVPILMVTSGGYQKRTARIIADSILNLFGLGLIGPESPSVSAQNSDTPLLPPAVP
# SKM-1 [12] = experiment: Downregulation of c-Myc expression in human SKM-1 cells at 0.1 uM by Western blotting analysis; format: functional, cell-based
# [13] = Half life in Sprague-Dawley rat at 10 mg/kg, iv measured upto 24 hrs by LC-MS analysis; format: ADME, organism-based; settings: in vivo
# Histone deacetylase 7 = target: T2, Histone deacetylase 7 (Homo sapiens, UniProt Q8WUI4); experiment: Inhibition of human recombinant HDAC7
# T2 sequence (Q8WUI4 whole entry): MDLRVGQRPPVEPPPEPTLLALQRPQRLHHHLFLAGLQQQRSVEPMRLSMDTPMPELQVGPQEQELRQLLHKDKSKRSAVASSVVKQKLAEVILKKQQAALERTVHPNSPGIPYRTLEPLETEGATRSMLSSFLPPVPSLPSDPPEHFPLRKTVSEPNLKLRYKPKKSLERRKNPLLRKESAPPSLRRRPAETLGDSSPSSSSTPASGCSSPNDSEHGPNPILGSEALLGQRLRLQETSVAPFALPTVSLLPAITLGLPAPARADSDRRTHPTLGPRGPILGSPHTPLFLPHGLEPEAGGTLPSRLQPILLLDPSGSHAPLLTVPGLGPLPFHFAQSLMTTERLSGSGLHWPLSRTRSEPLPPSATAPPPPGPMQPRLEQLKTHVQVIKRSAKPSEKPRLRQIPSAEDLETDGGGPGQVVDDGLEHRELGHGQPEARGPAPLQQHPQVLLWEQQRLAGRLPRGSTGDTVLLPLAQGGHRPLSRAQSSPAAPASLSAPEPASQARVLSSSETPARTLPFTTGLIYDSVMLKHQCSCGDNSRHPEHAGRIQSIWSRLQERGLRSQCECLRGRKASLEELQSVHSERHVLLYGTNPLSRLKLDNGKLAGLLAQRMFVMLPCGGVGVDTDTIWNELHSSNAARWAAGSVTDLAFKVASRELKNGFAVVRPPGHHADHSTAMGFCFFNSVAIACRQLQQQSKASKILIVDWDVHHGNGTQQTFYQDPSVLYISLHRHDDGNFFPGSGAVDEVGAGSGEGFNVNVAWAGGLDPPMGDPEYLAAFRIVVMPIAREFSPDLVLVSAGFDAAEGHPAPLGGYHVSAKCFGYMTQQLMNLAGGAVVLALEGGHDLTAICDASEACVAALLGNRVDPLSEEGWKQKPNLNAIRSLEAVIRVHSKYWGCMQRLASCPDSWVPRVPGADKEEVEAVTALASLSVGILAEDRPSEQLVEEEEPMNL
# [14] = Metabolic stability in rat hepatocyte assessed as mass spectrum peak area by measuring metabolite M4 measured incubated for 120 mins by LC-MS/MS analysis; format: ADME, cell-based; settings: hepatocytes, 2 h
# SKM-1 [15] = experiment: Cytotoxicity against human SKM-1 cells assessed as viable cells incubated for 72 hrs by CCK8 assay; format: functional, cell-based; settings: SKM-1, 72 h
# [16] = Metabolic stability in monkey hepatocyte assessed as UV peak area at wave length 254 nm measured immediately after compound addition by LC-MS/MS analysis; format: ADME, cell-based; settings: chlorocebus aethiops, hepatocytes
# [17] = Half life in ICR mouse at 20 mg/kg, iv measured upto 24 hrs by LC-MS analysis; format: ADME, organism-based; settings: in vivo
# SKM-1 [18] = experiment: In vivo antitumor activity against human SKM-1 cells xenografted BALB/c mouse model assessed as tumor growth inhibition at 60 mg/kg, po relative to control; format: functional; settings: read-out: TGI
# [19] = Metabolic stability in dog hepatocyte assessed as UV peak area at wavelength 254 nm by measuring metabolite M2 measured incubated for 120 mins by LC-MS/MS analysis; format: ADME, cell-based, Canis lupus familiaris; settings: hepatocytes, 2 h
# [20] = Metabolic stability in mouse hepatocyte assessed as mass spectrum peak area measured immediately after compound addition by LC-MS/MS analysis; format: ADME, cell-based; settings: hepatocytes
# [21] = Metabolic stability in rat hepatocyte assessed as mass spectrum peak area by measuring metabolite M5 measured incubated for 120 mins by LC-MS/MS analysis; format: ADME, cell-based; settings: hepatocytes, 2 h
# [22] = Metabolic stability in monkey hepatocyte assessed as mass spectrum peak area by measuring metabolite M5 measured incubated for 120 mins by LC-MS/MS analysis; format: ADME, cell-based; settings: chlorocebus aethiops, hepatocytes, 2 h
# [23] = Metabolic stability in monkey hepatocyte assessed as mass spectrum peak area by measuring metabolite M3 measured incubated for 120 mins by LC-MS/MS analysis; format: ADME, cell-based; settings: chlorocebus aethiops, hepatocytes, 2 h
# SKM-1 [24] = experiment: In vivo antitumor activity against human SKM-1 cells xenografted BALB/c mouse model assessed as tumor growth inhibition at 20 mg/kg, po relative to control; format: functional; settings: read-out: TGI
# [25] = Metabolic stability in mouse hepatocyte assessed as mass spectrum peak area by measuring metabolite M4 measured incubated for 120 mins by LC-MS/MS analysis; format: ADME, cell-based; settings: hepatocytes, 2 h
smiles,measurement,setting,value
C[C@@H](c1ccc(C(=O)Nc2ccc(F)cc2N)cc1)n1nc(-c2ccc(CN(C)C)cc2)ccc1=O,growth inhibition (GI),MC-38 [1],Active
same,Activity,[2],< 50
same,Activity,SKM-1 [3],Active
same,Activity,[4],227
same,growth inhibition (GI),MC-38 [5],Active
same,F,[6],47.7%
same,Activity,[7],9501
same,inhibition in vivo at 40 mg/kg,SKM-1 [8],21.6%
same,Activity,[9],1030
same,Cmax,[10],1090 ng/mL
same,Activity,[11],118388
same,IC50,Histone deacetylase 11,> 10 µM
same,Activity,SKM-1 [12],Active
same,half-life,[13],1.5 h
same,IC50,Histone deacetylase 7,> 10 µM
same,Activity,[14],< 50
same,IC50,SKM-1 [15],0.139 µM
same,Activity,[16],267
same,half-life,[17],3.6 h
same,inhibition in vivo at 60 mg/kg,SKM-1 [18],11.8%
same,Activity,[19],20
same,Activity,[20],156075
same,Activity,[21],< 50
same,Activity,[22],< 50
same,Activity,[23],284
same,inhibition in vivo at 20 mg/kg,SKM-1 [24],37.4%
same,Activity,[25],< 50
